Test results reported in patent publication US20250026721A1, “COMPOUNDS AND METHODS FOR MODULATING RAS-PI3K” (Vividion Therapeutics, Inc., priority 2023, published 2025).

Columns and labels:
[1] = test system: pAKT(S473) in H358 cell line; assay: In vitro Phospho-AKT(S473) HTRF analysis in H358 cells; assay type: cell-based; conditions: for IC50 / Emax: Homo sapiens, NCI-H358, 0.5 h; for IC50: H358 cells, 30 minutes at 37° C.; for Emax: read-out: H358 pAKT Imax % control
Procedure: Example 5. In Vitro Phosgho-AKT(S473) Analysis
Functional activity of the compounds to inhibit pAKT were assessed in FaDu or H358 cell lines as indicated below.
• Complete Media • FBS, Corning catalog #35-010-CV • Anti-Anti, Gibco catalog #15240-062 • 96 well plate, Corning catalog #3610 • TrypLE, Gibco catalog #12604013 • Phospho-AKT(S473) HTRF kit, Cisbio catalog #64AKSPET
Cells were detached from the tissue culture flask with TrypLE. The cells were pelleted at 500×g for 5 min, TrypLe was removed and then resuspended in the necessary volume of media+1% FBS to give the appropriate cell density (17,500 cells/mL for FaDu; 20,000 cells/mL for H358). 100 μL of cell suspension/well was dispensed into the 96-well plate while keeping the outer wells of the plate free of cells and filled with PBS to prevent evaporation of interior wells. The plate was incubated at 37° C. and allowed to adhere overnight. The cells were treated with a dose response of compound and incubated at 37° C. for 30 minutes. The cells were then processed and pAKT(S473) levels were assessed following the specifications of the Cisbio HTRF kit.

[2] = test system: pAKT(S473) in FaDu cell line; assay: In vitro Phospho-AKT(S473) HTRF analysis in FaDu cells; assay type: cell-based; conditions: for IC50 / Emax: Homo sapiens, 0.5 h; for IC50: FaDu cells, 30 minutes at 37° C.; for Emax: FaDu, read-out: FaDu pAKT Imax % control
Method in brief: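 FaDu or H358 cells were plated overnight in medium with 1% FBS, then exposed to a compound dose response for 30 minutes at 37° C. Phospho-AKT(S473) levels were measured by HTRF.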

PIK3CA = target: T1, PIK3CA (Homo sapiens, UniProt P42336); assay: In vitro ELISA target engagement assay for PIK3CA in Jurkat cellular lysate (competition with PIK3CA Biotin Probe); assay type: binding; conditions: 1 hour at rt, then 500 nM PIK3CA Biotin Probe, read-out: Elisa Target Engagement Assay (TE50)
T1 construct: endogenous in cells; host or cells: Jurkat cell lysate
T1 sequence (P42336 whole entry): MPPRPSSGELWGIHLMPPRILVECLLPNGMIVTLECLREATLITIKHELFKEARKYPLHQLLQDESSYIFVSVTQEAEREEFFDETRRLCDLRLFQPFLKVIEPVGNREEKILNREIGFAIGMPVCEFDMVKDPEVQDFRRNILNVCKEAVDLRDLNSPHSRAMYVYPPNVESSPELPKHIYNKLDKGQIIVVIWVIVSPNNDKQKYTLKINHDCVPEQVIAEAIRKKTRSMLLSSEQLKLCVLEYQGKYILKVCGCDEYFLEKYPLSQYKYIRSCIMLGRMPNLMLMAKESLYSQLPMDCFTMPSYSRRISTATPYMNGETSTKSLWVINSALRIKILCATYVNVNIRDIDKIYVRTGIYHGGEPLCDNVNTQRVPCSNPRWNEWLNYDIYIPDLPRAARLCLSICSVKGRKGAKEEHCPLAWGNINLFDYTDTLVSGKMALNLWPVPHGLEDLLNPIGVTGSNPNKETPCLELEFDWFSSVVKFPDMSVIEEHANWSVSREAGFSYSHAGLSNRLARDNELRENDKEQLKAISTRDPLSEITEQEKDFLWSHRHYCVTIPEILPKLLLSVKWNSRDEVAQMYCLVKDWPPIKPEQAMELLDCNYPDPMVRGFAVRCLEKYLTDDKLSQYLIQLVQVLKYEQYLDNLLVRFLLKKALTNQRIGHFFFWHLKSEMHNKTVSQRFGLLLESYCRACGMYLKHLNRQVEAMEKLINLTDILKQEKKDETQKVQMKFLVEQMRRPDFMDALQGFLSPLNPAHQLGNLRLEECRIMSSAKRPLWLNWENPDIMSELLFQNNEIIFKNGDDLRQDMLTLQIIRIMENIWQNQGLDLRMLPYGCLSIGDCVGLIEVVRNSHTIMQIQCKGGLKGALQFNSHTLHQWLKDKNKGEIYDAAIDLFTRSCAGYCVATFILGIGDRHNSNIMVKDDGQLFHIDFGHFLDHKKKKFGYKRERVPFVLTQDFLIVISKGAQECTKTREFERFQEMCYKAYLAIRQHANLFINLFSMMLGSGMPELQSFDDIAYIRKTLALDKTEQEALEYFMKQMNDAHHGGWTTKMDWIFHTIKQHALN
T1 sequence (P27986 whole entry partner): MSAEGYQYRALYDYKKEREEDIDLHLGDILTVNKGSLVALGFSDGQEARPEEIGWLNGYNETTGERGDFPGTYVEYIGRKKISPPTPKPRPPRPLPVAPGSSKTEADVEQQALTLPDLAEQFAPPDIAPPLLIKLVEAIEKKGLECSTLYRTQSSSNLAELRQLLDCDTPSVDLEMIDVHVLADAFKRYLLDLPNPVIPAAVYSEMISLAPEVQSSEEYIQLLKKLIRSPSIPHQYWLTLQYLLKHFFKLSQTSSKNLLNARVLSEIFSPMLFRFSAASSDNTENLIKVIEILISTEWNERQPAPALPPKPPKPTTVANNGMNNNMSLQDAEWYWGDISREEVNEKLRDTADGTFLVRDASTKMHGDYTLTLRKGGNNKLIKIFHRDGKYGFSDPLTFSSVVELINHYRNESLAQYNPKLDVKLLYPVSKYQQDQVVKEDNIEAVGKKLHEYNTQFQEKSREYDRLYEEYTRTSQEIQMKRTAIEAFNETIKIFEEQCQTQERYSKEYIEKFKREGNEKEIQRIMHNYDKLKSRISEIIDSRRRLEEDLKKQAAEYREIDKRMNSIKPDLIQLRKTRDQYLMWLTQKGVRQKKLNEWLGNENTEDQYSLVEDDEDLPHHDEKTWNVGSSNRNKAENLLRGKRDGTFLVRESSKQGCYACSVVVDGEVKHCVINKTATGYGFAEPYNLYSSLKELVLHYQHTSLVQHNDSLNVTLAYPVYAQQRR
Method in brief: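 Jurkat lysate from sonicated frozen cells was preincubated 1 h at rt with serially diluted compound up to 200 μM, then labelled 1 h at rt with PIK3CA biotin probe at 500 nM final. Probe-bound PIK3CA was captured on antibody-coated plates and detected with Neutravidin-HRP luminescence; TE50 derived from the dose response.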

PIK3CA_C242 = target: T2, PIK3CA_C242 (Homo sapiens, UniProt P42336); assay: Proteomic TE50 (IA-DTB / TMT mass spectrometry) in Jurkat cell lysate; assay type: binding; conditions: 1 hour at rt, 7-point dose response
T2 construct: endogenous in cells; host or cells: Jurkat cell lysate
T2 sequence (P42336 whole entry): as the sequence (P42336 whole entry) above
T2 sequence (P27986 whole entry partner): as the sequence (P27986 whole entry partner) above
Method in brief: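 Jurkat lysate (500 μg) treated with compound (7-point, 1:5 dilutions) for 1 h at rt, then labelled with 200 μM IA-DTB for 1 h. After digestion and streptavidin enrichment, the C242 peptide was quantified by targeted MS3 TMT. TE50 was derived from reporter-ion S/N dose-response curves.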

IC50 [1] [nM] | IC50 [2] [nM] | IC50 (PIK3CA) [nM] | IC50 (PIK3CA_C242) [nM] | Compound | Emax [1] [%] | Emax [2] [%] | absolute inhibition of pAKT ([1]; H358 cell line, internal standard, variation between runs) | absolute inhibition of pAKT ([2]; FaDu cell line, internal standard, variation between runs)
 | 96.5 |  |  | C[C@H](/C=C\S(C)(=O)=O)NC(=O)C1(F)CCN(S(=O)(=O)c2ccc(Br)cc2-c2ccccc2Cl)CC1 [Compound 47, 1-[4-bromo-2-(2-chlorophenyl)phenyl]sulfonyl-4-fluoro-N—[(Z,1R)-1-methyl-3-methylsulfonyl-allyl]piperidine-4-carboxamide] |  | 100 | 40-89% | 43-98%
953 |  | 1450 | 980 | COc1ccc(Cl)c(-c2cc(Cl)ncc2S(=O)(=O)N2CCC(F)(C(=O)N[C@H](C)/C=C\S(C)(=O)=O)CC2)c1 [Compound 217, (R,Z)-1-((6-chloro-4-(2-chloro-5-methoxyphenyl)pyridin-3-yl)sulfonyl)-4-fluoro-N-(4-(methylsulfonyl)but-3-en-2-yl)piperidine-4-carboxamide] | 74.6 |  |  | 

Second part, the compound before the results:

Compound | IC50 [1] [nM] | IC50 [2] [nM] | IC50 (PIK3CA) [nM] | IC50 (PIK3CA_C242) [nM] | Emax [1] [%] | Emax [2] [%] | absolute inhibition of pAKT ([1]; H358 cell line, internal standard, variation between runs) | absolute inhibition of pAKT ([2]; FaDu cell line, internal standard, variation between runs)
Cc1ccc([C@@H]2CN(CC(F)(F)F)C[C@@H]2C(=O)N2CCC[C@](F)(C(=O)N[C@H](C)/C=C\S(C)(=O)=O)CC2)c(Cl)c1 (single isomer, unassigned) [Compound 169, (R)-1-((3*R,4*R)-4-(2-chloro-4-methylphenyl)-1-(2,2,2-trifluoroethyl)pyrrolidine-3-carbonyl)-4-fluoro-N—((R,Z)-4-(methylsulfonyl)but-3-en-2-yl)azepane-4-carboxamide] | 202 | 154 | 210 |  | 106 | 108 |  | 
C[C@H](/C=C\S(C)(=O)=O)NC(=O)[C@]1(F)CCN(C(=O)[C@H]2CN(CC(F)(F)F)C[C@H]2c2ccccc2Cl)[C@@H](C)C1 (single isomer, unassigned) [Compound 302, (2*S,4*S)-1-((3R,4R)-4-(2-chlorophenyl)-1-(2,2,2-trifluoroethyl)pyrrolidine-3-carbonyl)-4-fluoro-2-methyl-N-((R,Z)-4-(methylsulfonyl)but-3-en-2-yl)piperidine-4-carboxamide] | 464 | 696 | 440 |  | 87.2 | 101 |  | 
C[C@H](/C=C\S(C)(=O)=O)NC(=O)[C@@]1(F)CCCN(C(=O)[C@H]2CN(Cc3ccccc3)C[C@H]2c2ccccc2Cl)CC1 (single isomer, unassigned) [Compound 305, (R)-1-((3*R,4*R)-1-benzyl-4-(2-chlorophenyl)pyrrolidine-3-carbonyl)-4-fluoro-N-((R,Z)-4-(methylsulfonyl)but-3-en-2-yl)azepane-4-carboxamide] | 396 | 428 | 650 |  | 90.7 | 94.3 |  | 
C[C@H](/C=C/S(C)(=O)=O)NC(=O)[C@@]1(F)CCCN(C(=O)[C@H]2CN(CC(F)(F)F)C[C@H]2c2c(F)cccc2Cl)CC1 [Compound 296, (R)-1-((3R,4R)-4-(2-chloro-6-fluorophenyl)-1-(2,2,2-trifluoroethyl)pyrrolidine-3-carbonyl)-4-fluoro-N-((R,E)-4-(methylsulfonyl)but-3-en-2-yl)azepane-4-carboxamide] | 642 |  | 400 |  | 69.4 |  |  | 
C[C@@H](/C=C\S(C)(=O)=O)NC(=O)[C@@]1(F)CCCN(C(=O)[C@H]2CN(CC(F)(F)F)C[C@H]2c2c(F)cccc2Cl)CC1 [Compound 297, (R)-1-((3R,4R)-4-(2-chloro-6-fluorophenyl)-1-(2,2,2-trifluoroethyl)pyrrolidine-3-carbonyl)-4-fluoro-N-((S,Z)-4-(methylsulfonyl)but-3-en-2-yl)azepane-4-carboxamide] | 1500 |  | 910 |  | 87.6 |  |  | 
C[C@H](/C=C\S(C)(=O)=O)NC(=O)C1(F)CCN(C(=O)[C@H]2CN(CC(F)(F)F)C[C@H]2c2ccccc2Cl)C1 (stereo partly drawn) [Compound 314, 1-((3R,4R)-4-(2-chlorophenyl)-1-(2,2,2-trifluoroethyl)pyrrolidine-3-carbonyl)-3-fluoro-N-((R,Z)-4-(methylsulfonyl)but-3-en-2-yl)pyrrolidine-3-carboxamide] | 622 |  | 1100 |  | 100 |  |  | 
